In this assay the target is uPAR (Homo sapiens, UniProt Q03405). Put plainly: BIO-R4 assay (ELISA test): inhibition of uPA binding to its specific receptor uPAR. As to conditions: Inhibition of uPA binding to the specific uPAR receptor (BIO-R4); detection at 405 nm. The procedure: The compounds of the invention were tested (ELISA test) as inhibitors of human urokinase (uPA) binding to its specific receptor uPAR mAk (BIO-R4), according to the procedure described in Biol. Chem. Hoppe-Seyler, 376, 587-94 (1995) by Rettenberger et al. The assays are performed in Microtiterplates (96 wells). The following solutions are used: • washing buffer: PBS-buffer (without Mg^2+ and Ca^2+) + 0.05% Tween 20; • incubation buffer (IP): 1% skimmed milk powder in PBS-buffer (without Mg^2+ and Ca^2+); • BIO-R4 solution: 50 ng/well (0.5 µg/ml 100 µl/well) in IP; • uPAR solution: 3 ng/well (30 ng/ml; 100 µl/well) in PBS-buffer (without Mg^2+ and Ca^2+); • blocking solution: 1% skimmed milk powder in washing buffer (dissolved at 37°C); • uPA solution: 0.25 ng/well (5 ng/ml; 50 µl/well) in IP.
Chain of uPAR (Q03405 23-305 limits assumed): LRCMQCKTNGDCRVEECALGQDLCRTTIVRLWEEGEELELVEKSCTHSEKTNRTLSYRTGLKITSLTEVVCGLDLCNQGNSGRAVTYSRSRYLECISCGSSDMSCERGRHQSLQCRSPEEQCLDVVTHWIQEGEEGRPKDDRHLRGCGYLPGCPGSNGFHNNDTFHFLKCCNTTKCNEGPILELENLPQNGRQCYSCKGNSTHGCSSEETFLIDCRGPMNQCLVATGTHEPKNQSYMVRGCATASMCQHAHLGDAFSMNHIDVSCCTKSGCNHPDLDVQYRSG
Detection solutions (per microtiterplate):
• (1) 6 ml (100 mM Tris-Cl pH 7.2 + 0.15% Tween 80) + 1.5 ml (10 µg) plasminogen in aqua bidest; • (2) 6 ml (100 mM Tris-Cl pH 7.2 + 0.15% Tween 80) + 1.5 ml (7.5 mg) chromozyme PL in aqua bidest. […]
For detection, the following procedure is used: Incubation with 50 µl each of detection solution (1) and (2) at room temperature. After 20 minutes a yellow colour will be visible (the positive control reads an extinction of 1 after 45-60 minutes). The detection is performed at 405 nm (reference is 490 nm) using a Dynatech MR 7000 ELISA reader. […]

`CC(C)=C1Oc2cccc(OCC#CCN3CCC(NC(=O)c4ccc(Cl)c(S(N)(=O)=O)c4)CC3)c2C1=O` [Example 4, 4-{4-[4-(3-aminosulfonyl-4-chlorobenzamido)piperidino]but-2-ynoxy}-2-isopropylidenecoumaran-3-one] had an IC50 of 1790 nM. This counts as single-digit micromolar. The result for `CC(C)=C1Oc2cccc(OCc3cccc(CN4CCC(NC(=O)c5ccc(Cl)c(Cl)c5)CC4)c3)c2C1=O` [Example 11, 4-{3-[4-(3,4-dichlorobenzamido)piperidinomethyl]phenylmethoxy}-2-isopropylidenecoumaran-3-one] reads 1410 nM.

The values above are taken from patent EP1026165A1, “O-substituted Hydroxycoumaranone derivatives as antitumor and antimetastatic agents” (Roche Diagnostics GmbH, priority 1999, dated 2000).
